The structures appear in SMILES notation. Bounds are passed on as bounds.

This test has as its target T1, Angiotensin II (A II) receptor (Oryctolagus cuniculus, UniProt P34976).
T1 construct: membrane preparation derived from rabbit aortae; tissue Pel-Freeze Biologicals; host or cells: frozen rabbit aortae, membrane preparation
T1 sequence (P34976 1-359): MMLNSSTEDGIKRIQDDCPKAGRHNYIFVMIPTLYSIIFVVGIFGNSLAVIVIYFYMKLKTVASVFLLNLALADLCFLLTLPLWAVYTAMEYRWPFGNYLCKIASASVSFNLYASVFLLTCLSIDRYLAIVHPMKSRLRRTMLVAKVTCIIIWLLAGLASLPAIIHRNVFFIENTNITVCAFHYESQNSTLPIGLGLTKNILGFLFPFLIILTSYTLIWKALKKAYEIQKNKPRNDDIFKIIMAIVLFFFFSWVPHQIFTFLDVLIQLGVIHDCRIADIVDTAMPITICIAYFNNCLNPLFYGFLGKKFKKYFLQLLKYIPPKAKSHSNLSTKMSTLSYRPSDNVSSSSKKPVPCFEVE
Kind of test: Receptor binding assay using rabbit aortae membrane preparation (displacement of 125I-Sar1Ile8-angiotensin II; the "IC50" assay). The note with it: membrane preparation derived from rabbit aortae; 37° C., 90 minutes; read-out: inhibitory concentration (IC50) giving 50% displacement of the total specifically bound 125I-Sar1 Ile8-angiotensin II. The method, then: This assay is also referred to herein as the "IC50 " assay.
RECEPTOR BINDING ASSAY USING RABBIT AORTAE MEMBRANE PREPARATION
Three frozen rabbit aortae (obtained from Pel-Freeze Biologicals) were suspended in 5 mM Tris-0.25M Sucrose, pH 7.4 buffer (50 ml) homogenized, and then centifuged. The mixture was filtered through a cheesecloth and the supernatant was centrifuged for 30 minutes at 20,000 rpm at 4° C. The pellet thus obtained was resuspended in 30 ml of 50 mM Tris-5 mM MgCl2 buffer containing 0.2% Bovine Serum Albumin and 0.2 mg/ml Bacitration and the suspension was used for 100 assay tubes. Samples tested for screening were done in duplicate. To the membrane preparation (0.25 ml) there was added ^125 I-Sar^1 Ile^8 -angiotensin II [obtained from New England Nuclear] (10 ul; 20,000 cpm) with or without the test sample and the mixture was incubated at 37° C. for 90 minutes. The mixture was then diluted with ice-cold 50 mM Tris-0.9% NaCl, pH 7.4 (4 ml) and filtered through a glass fiber filter (GF/B Whatman 2.4" diameter). The filter was soaked in scintillation cocktail (10 ml) and counted for radioactivity using Packard 2660 Tricarb liquid scintillation counter. […]
A general note: In a radioligand displacement assay an active substance lowers the binding of a labelled ligand.

Turning to `CCCc1nc2c(C)ccnc2n1Cc1ccc(-c2ccccc2-c2nnnn2CC2=CC(O)C(O)C(O)C2=O)cc1` (stereo not shown) [Compound I], the IC50 was under 50 µM.

The values above are taken from US5087702A, “Microbial transformation process for producing an antihypertensive product” (Merck & Co., Inc., priority 1991, dated 1992).
